Experimental data from paper PMC11110755, “Structure-based virtual screening of unbiased and RNA-focused libraries to identify new ligands for the HCV IRES model system” (RSC Medicinal Chemistry, 2024).
Where “and” joins values, the source holds several entries; their conditions need not be identical. Identical values can stand only once. Entries after “also recorded” stand apart in the source; their conditions may differ. Like-named read-outs stand apart in the source and are kept apart here. Values belong to the compound of their own block, whether it stands above or below them.

Legend:
[1] = tested on: HCV IRES subdomain IIa; test: FRET assay monitoring ligand-induced conformational change of Cy3/Cy5-labelled HCV IRES subdomain IIa; format: biochemical, hepatitis C virus; conditions: for FRET-signal change / conformational change of HCV IRES subdomain IIa, in words: pre-screening 1000, 100, 10 and 0.001 μM
Method: For the FRET assay, a two stranded HCV IRES subdomain IIa carrying a 5′-Cy3-label on one and 5′-Cy5-label on the other strand (Cy3-[…], Cy5-[…], Biomers.net GmbH) was used as described previously.[22,53] All samples containing labelled RNA were treated under light protection. FRET experiments were performed on a Tecan Spark 10 M plate reader (excitation/emission: 480/670 nm) using black half area 96 well microplates (Greiner Bio-One), based on a protocol by Zhou et al.[53] The 5′-Cy3- and 5′-Cy5-labelled single strands were annealed by heating to 75 °C in FRET buffer (10 mM HEPES pH 7.0, 2 mM MgCl2) and cooled down to room temperature for at least 20 min. The 5′-Cy3/Cy5-labelled RNA was diluted to 100 nM in FRET buffer and supplemented with compounds 8–28 in appropriate concentrations. Compounds 4 and 5 were used as positive controls. For the initial screening, compounds were added in final concentrations of 1000, 100, 10 and 0.001 μM (Fig. S4 ^†). If a concentration dependent reduction of the FRET signal (Cy5-emission) was observed, EC50-values were determined using ligand concentrations from 1 mM to 100 nM in 3.16-fold (semi-logarithmic) dilution series. For those compounds, the Cy3 emission was measured at 535 nm to confirm a conformational change dependent reduction in the Cy5 emission signal via Cy3 emission increase (Fig. S7 ^†). For each experiment, one DMSO negative control was carried out. The final DMSO concentration was always 2%. Excitation and emission spectra were recorded for the Cy3/Cy5-labelled RNA (100 nM) in FRET buffer to confirm excitation (Cy3) and emission (Cy5) wavelength as well as for each compound (1 μM) in FRET buffer to exclude any interference with the cyanine dyes. All measurements were performed at least as triplicates for screening and EC50-determination.
(§1) FRET experiments were analyzed using GraphPad Prism (version 8.0.1., GraphPad Software, Boston, Massachusetts USA, https://www.graphpad.com).

[2] = tested on: HCV IRES subdomain IIa; format: binding, hepatitis C virus; conditions: for Kd / MST KD: 30 nM Cy5-labelled RNA, 10 mM HEPES pH 7.0, 2 mM MgCl2, 2% DMSO, ≥ = no saturation, n.b. no binding observed; for Kd: read-out: MST KD
Method: For the MST assay, the same sequence of the two stranded HCV IRES subdomain IIa as for the FRET assay was used. One strand was 5′-Cy5-labelled and the other strand was unmodified ([…], Cy5-[…], Biomers.net GmbH). All samples containing labelled RNA were treated under light protection. MST experiments were performed on a Monolith NT.115 from NanoTemper Technologies using standard uncoated capillaries. The strands were annealed by heating to 75 °C in MST buffer (10 mM HEPES pH 7.0, 2 mM MgCl2) and cooled down to room temperature for at least 20 min. The 5′-Cy5-labelled HCV IRES domain IIa RNA was diluted to 30 nM in MST buffer and supplemented with compounds 8–25 in appropriate concentrations. Compounds 4 and 5 were used as positive controls. For the initial screening, compounds were added to final concentrations of 1000 (or 316 if limited by solubility), 100, 10 and 0.001 μM (Fig. S5 ^†). If a concentration-dependent shift of thermophoresis was observed, KD-values were determined using concentrations ranging from 1 mM (if permitted by solubility, otherwise starting from 316 or 100 μM) to 0.01 μM in a 3.16-fold (semi-logarithmic) dilution series. For each experiment, one DMSO negative control was carried out. Final DMSO concentration was always 2%.
(§2) Off-target counter screens by MST were performed as described previously.[31,84] Briefly, the 5′-Cy5-labelled Tte preQ1-Riboswitch aptamer domain (Biomers.net GmbH) was heated to 75 °C for 5 min, cooled down to room temperature for at least 20 min and then diluted to 20 nM in MST buffer (50 mM Tris-HCl pH 7.5, 100 mM KCl, 25 mM MgCl2) and supplemented with compounds 4, 5, 8–13, 18, 21, 22 and 26 to final concentrations of 1000, 100, 10 and 0.001 μM. PreQ1 was used as a positive control. The 5′-Cy5-labelled B. angulatum SAM VI-Riboswitch aptamer domain (Eurofins Genomics GmbH) was heated to 75 °C for 5 min, cooled down to room temperature for at least 20 min and then diluted to 20 nM in MST buffer (50 mM Tris-HCl pH 7.5, 100 mM KCl, 25 mM MgCl2) and supplemented with compounds 5, 9 and 28 to final concentrations of 1000, 100, 10 and 0.001 μM. SAM was used as a positive control. For each experiment, one DMSO negative control was carried out. The final DMSO concentration was 2%. All measurements were performed at least as duplicates for pre-screening and triplicates for KD-determination. MST measurements were analyzed from signals after 18 s laser on-time using the MO.Affinity Analysis software (version 2.3) and exported for statistical analysis and plotting in GraphPad Prism (version 8.0.1., GraphPad Software, Boston, Massachusetts USA, https://www.graphpad.com).

[3] = tested on: HCV IRES subdomain IIa; set-up: method as in PMID 25349403; conditions: previous study, cited from earlier work
[4] = tested on: SAM VI-Riboswitch aptamer domain; test: MST off-target counter screen, SAM VI-riboswitch aptamer domain; format: binding, B. angulatum; conditions: 1000, 100, 10 and 0.001 μM
Method: as §2

[5] = tested on: HCV IRES subdomain IIa; set-up: method as in PMID 16279767, PMID 24930829, PMID 27775338; conditions: previously reported, Fig. 1; read-out: EC50 (FRET assay); cited from earlier work
[6] = molecular target: HCV IRES subdomain IIa; set-up: method as in PMID 16279767; conditions: previously reported; read-out: KD (MS assay); cited from earlier work
[7] = tested on: cellular replicon; set-up: method as in PMID 16279767; conditions: cited from earlier work
[8] = tested on: Tte preQ1-Riboswitch aptamer domain; test: MST off-target counter screen, preQ1-riboswitch aptamer domain; format: binding, Thermoanaerobacter tengcongensis; conditions: for preQ1-riboswitch binding / selectivity (MST-shift), in words: 1000, 100, 10 and 0.001 μM
Method: as §2

[9] = tested on: HCV IRES subdomain IIa in presence of total RNA from yeast; test: Selectivity FRET assay in presence of competing total RNA from yeast; format: biochemical, hepatitis C virus; conditions: 1:5 m/m HCV IRES : total RNA from yeast
Method: For the HCV IRES-binding compounds (4, 5, 8–13, 8a–8c), a selectivity FRET assay in presence of total RNA from yeast (Roche) was performed. The ratio of the FRET HCV IRES subdomain IIa construct and the total RNA was set to 1 : 5 m/m. The preparation of the labelled RNA and the compounds was the same as in the binding assay. The yeast RNA was diluted to 7.88 mg L^−1 and supplemented with 100 nM HCV IRES and appropriate concentrations of the compounds (3.16-fold dilution series) in FRET buffer (Fig. S10 ^†). For each compound, triplicate measurements were performed. For each experiment, one DMSO negative control was carried out. The final DMSO concentration was always 2%.
as §1

[10] = 100 nM Cy3/Cy5-labelled RNA, 10 mM HEPES pH 7.0, 2 mM MgCl2, 2% DMSO, ≥ = lower limit

binding to HCV IRES subdomain IIa (MST-shift), in words ([2]; pre-screening 1000 (or 316), 100, 10 and 0.001 μM): no binding
SMILES: CN(C)C(=O)COC(=O)Cc1ccc(OC(=O)c2ccc(NC(=N)N)cc2)cc1 [Compound 27, Camostat, reference compound]
FRET-signal change / conformational change of HCV IRES subdomain IIa, in words [1]: no binding

EC50 [1, 10]: ≥ 1 mM | EC50 ([1]; as printed in text in mM): ≥ 1 mM | Kd [2]: ≥ 100 µM
SMILES: NC1=NC(c2cn[nH]c2-c2cccc(O)c2)n2c(nc3ccccc32)N1 (centres unmarked) [Compound 13]

SMILES: N=C(N)NCCC[C@H](N)C(=O)O [arginine]
HCV IRES subdomain IIa binding, in words [3]: no binding

SMILES: CN(C)CCCn1c(N)nc2ccc3c(c21)CC(CN(C)C)CO3 (centres unmarked) [Compound 5]
EC50 [1, 10]: 0.0049 ± 0.0026 mM | SAM-VI-riboswitch binding (MST-shift), in words [4]: no binding; also recorded: no MST shift | EC50 [5]: 3.4 µM | Kd [2]: 5.2 ± 0.8 µM | Kd [6]: 0.86 µM | antiviral activity in cellular replicon assay, in words [7]: antiviral activity | toxicity in cellular replicon assay, in words [7]: minimal toxicity | preQ1-riboswitch binding / selectivity (MST-shift), in words [8]: Weak preQ1-riboswitch binding; also recorded: binding to the preQ1-riboswitch at very high concentrations

SMILES: CN(C)CCCn1c(N)nc2ccccc21 [Compound 4]
EC50 [1, 10]: 0.078 ± 0.035 mM | EC50 [5]: 50 µM | Kd [6]: 100 µM and ≥ 100 µM | FRET result in presence of competing total RNA, in words [9]: lower EC50-values

EC50 [1, 10]: 0.413 ± 0.097 mM | Kd [2]: ≥ 440 µM
SMILES: CCOc1ccc2c(C)nc(NC(=N)NC)nc2c1 [Compound 8]

EC50 [1, 10]: ≥ 0.5 mM | MST KD [2]: n.b.
SMILES: NC(=O)c1c[nH]c2ccc(NC(=O)CCc3cc4n(n3)CCCNC4)cc12 [Compound 10]
Cy3-emission change in FRET assay, in words ([1]; Cy3 emission at 535 nm): no increase of Cy3-emission | FRET-signal change / conformational change of HCV IRES subdomain IIa, in words [1]: signals in the FRET assay

SMILES: CC(C)NCC(O)COc1ccc2[nH]cc(CCN)c2c1 (centres unmarked) [Compound 11]
EC50 [1, 10]: ≥ 0.5 mM | Kd [2]: ≥ 100 µM

SMILES: COc1cccc(C2NC(N)=Nc3nc4ccccc4n32)c1 (centres unmarked) [Compound 21]
FRET-signal change / conformational change of HCV IRES subdomain IIa, in words [1]: no large changes in FRET-signals; also recorded: no changes in the FRET-assay

SMILES: Nc1nc(N2CCN(Cc3c(Cl)ccc(O)c3Cl)CC2)cc(=O)[nH]1 [Compound 9]
EC50 [1, 10]: 0.217 ± 0.041 mM | FRET-signal change / conformational change of HCV IRES subdomain IIa, in words [1]: signals in the FRET assay | SAM-VI-riboswitch binding (MST-shift), in words [4]: no MST shift; also recorded: no binding; also recorded: no general RNA-promiscuity | MST KD [2]: n.b. | Kd ([8]; 20 nM Cy5-labelled aptamer, read-out: KD preQ1 riboswitch (MST)): 7.8 µM | preQ1-riboswitch binding / selectivity (MST-shift), in words [8]: Weak preQ1-riboswitch binding; also recorded: binding to the preQ1-riboswitch at very high concentrations | FRET result in presence of competing total RNA, in words [9]: lower EC50-values; also recorded: reduced

EC50 [1, 10]: 0.12 ± 0.024 mM | Kd [2]: 134 ± 43 µM
SMILES: COc1ccc2c(C)nc(NC(=N)N)nc2c1 [Compound 8c]

SMILES: Nc1nc2[nH]cnc2c(=O)[nH]1 [G]
HCV IRES subdomain IIa binding, in words [3]: weak binding behavior | EC50 ([3]; read-out: EC50 HCV IRES subdomain IIa binding): 1050 µM
